In brackets after ≈: the same amount, converted by molar mass.
Columns and labels:
[1] = test system: Mycobacteroides abscessus; assay: Antimycobacterial activity against Mycobacterium massiliense 119 by CLSI method; assay type: functional, Mycobacterium abscessus subsp. massiliense
[2] = test system: Mycobacterium intracellulare; assay: Antimycobacterial activity against Mycobacterium intracellulare 1956 by CLSI method; assay type: functional
[3] = test system: Mycobacterium avium; assay: Antimycobacterial activity against Mycobacterium avium 101 by CLSI method; assay type: functional
[4] = test system: Mycobacteroides abscessus; assay: Antimycobacterial activity against Mycobacterium abscessus 79 by CLSI method; assay type: functional
[5] = test system: Mycolicibacterium fortuitum; assay: Antimycobacterial activity against Mycobacterium fortuitum 41 by CLSI method; assay type: functional
[6] = test system: Mycobacteroides abscessus; assay: Antimycobacterial activity against Mycobacterium abscessus 1 by CLSI method; assay type: functional
[7] = test system: Mycobacteroides abscessus; assay: Antimycobacterial activity against Mycobacterium abscessus 21 by CLSI method; assay type: functional
[8] = test system: Mycolicibacterium peregrinum; assay: Antimycobacterial activity against Mycobacterium peregrinum ATCC 700686 by CLSI method; assay type: functional
[9] = test system: Mycobacteroides chelonae; assay: Antimycobacterial activity against Mycobacterium chelonae 93 by CLSI method; assay type: functional
[10] = test system: Mycobacteroides abscessus; assay: Antimycobacterial activity against Mycobacterium abscessus ATCC 19977 by CLSI method; assay type: functional
[11] = test system: Mycobacteroides abscessus; assay: Antimycobacterial activity against Mycobacterium abscessus 103 by CLSI method; assay type: functional
[12] = test system: Mycobacterium tuberculosis; assay: Antimycobacterial activity against Mycobacterium tuberculosis H37Rv MC2 6206 by CLSI method; assay type: functional

Compound: CC12CCCC(C(=O)Nc3nc4ccc(OC(F)F)cc4s3)(CCC1)C2
- MIC [1]: 0.12 µg/mL (≈ 0.315 µM)
- MIC [2]: 4 µg/mL (≈ 10.5 µM)
- MIC [3]: 8 µg/mL (≈ 21 µM)
- MIC [4]: 0.12 µg/mL (≈ 0.315 µM)
- MIC [5]: 1 µg/mL (≈ 2.63 µM)
- MIC [6]: 0.25 µg/mL (≈ 0.657 µM)
- MIC [7]: 0.12 µg/mL (≈ 0.315 µM)
- MIC [8]: 0.12 µg/mL (≈ 0.315 µM)
- MIC [9]: 0.25 µg/mL (≈ 0.657 µM)

Compound: CC1(C)CCC(C(=O)Nc2nc3ccc(C(F)(F)F)cc3s2)CC1
- MIC [2]: 64 µg/mL (≈ 180 µM)
- MIC [3]: 64 µg/mL (≈ 180 µM)
- MIC [10]: > 64 µg/mL

Compound: Cc1cc(C)c2sc(NC(=O)C34CCCC(C)(CCC3)C4)nc2c1
- MIC [1]: 0.12 µg/mL (≈ 0.35 µM)
- MIC [2]: 8 µg/mL (≈ 23.4 µM)
- MIC [3]: 8 µg/mL (≈ 23.4 µM)
- MIC [4]: 0.12 µg/mL (≈ 0.35 µM)
- MIC [5]: 1 µg/mL (≈ 2.92 µM)
- MIC [6]: 0.25 µg/mL (≈ 0.73 µM)
- MIC [11]: 0.25 µg/mL (≈ 0.73 µM)
- MIC [7]: 0.12 µg/mL (≈ 0.35 µM)
- MIC [8]: 0.25 µg/mL (≈ 0.73 µM)
- MIC [9]: 0.12 µg/mL (≈ 0.35 µM)

Compound: CC1CC(C(=O)Nc2nc3cc(F)cc(F)c3s2)CC(C)(C)C1 (stereo unspecified)
- MIC [1]: 0.25 µg/mL (≈ 0.739 µM)
- MIC [2]: 8 µg/mL (≈ 23.6 µM)
- MIC [3]: 8 µg/mL (≈ 23.6 µM)
- MIC [4]: 0.25 µg/mL (≈ 0.739 µM)
- MIC [5]: 0.25 µg/mL (≈ 0.739 µM)
- MIC [6]: 0.5 µg/mL (≈ 1.48 µM)
- MIC [11]: 0.25 µg/mL (≈ 0.739 µM)
- MIC [7]: 0.25 µg/mL (≈ 0.739 µM)
- MIC [8]: 0.12 µg/mL (≈ 0.355 µM)
- MIC [9]: 0.25 µg/mL (≈ 0.739 µM)

Compound: CC1CC(C(=O)Nc2nc3cccc(O)c3s2)CC(C)(C)C1 (stereo unspecified)
- MIC [1]: 2 µg/mL (≈ 6.28 µM)
- MIC [2]: 4 µg/mL (≈ 12.6 µM)
- MIC [4]: 8 µg/mL (≈ 25.1 µM)
- MIC [5]: 2 µg/mL (≈ 6.28 µM)
- MIC [11]: 2 µg/mL (≈ 6.28 µM)
- MIC [7]: 16 µg/mL (≈ 50.2 µM)
- MIC [8]: 0.12 µg/mL (≈ 0.377 µM)
- MIC [9]: 1 µg/mL (≈ 3.14 µM)

Compound: CC1CC(C(=O)Nc2nc3c(F)c(F)c(F)cc3s2)CC(C)(C)C1 (stereo unspecified)
- MIC [1]: 0.5 µg/mL (≈ 1.4 µM)
- MIC [2]: > 64 µg/mL
- MIC [3]: > 64 µg/mL
- MIC [12]: 1 µg/mL (≈ 2.81 µM)
- MIC [4]: 0.25 µg/mL (≈ 0.701 µM)
- MIC [5]: 0.25 µg/mL (≈ 0.701 µM)
- MIC [6]: 0.5 µg/mL (≈ 1.4 µM)
- MIC [11]: 0.5 µg/mL (≈ 1.4 µM)
- MIC [7]: 0.5 µg/mL (≈ 1.4 µM)
- MIC [8]: 0.12 µg/mL (≈ 0.337 µM)
- MIC [9]: 0.25 µg/mL (≈ 0.701 µM)

Compound: O=C(Nc1nc2ccc(C(F)(F)F)cc2s1)C1CCCC(C(F)(F)F)C1 (stereo unspecified)
- MIC [1]: 1 µg/mL (≈ 2.52 µM)
- MIC [2]: 16 µg/mL (≈ 40.4 µM)
- MIC [3]: 16 µg/mL (≈ 40.4 µM)
- MIC [4]: 2 µg/mL (≈ 5.05 µM)
- MIC [5]: 2 µg/mL (≈ 5.05 µM)
- MIC [6]: 2 µg/mL (≈ 5.05 µM)
- MIC [7]: 1 µg/mL (≈ 2.52 µM)
- MIC [8]: 1 µg/mL (≈ 2.52 µM)
- MIC [9]: 0.5 µg/mL (≈ 1.26 µM)

Compound: CC1CC(C(=O)Nc2nc3ccc(F)cc3s2)CC(C)(C)C1 (stereo unspecified)
- MIC [1]: 0.25 µg/mL (≈ 0.78 µM)
- MIC [2]: 8 µg/mL (≈ 25 µM)
- MIC [3]: 8 µg/mL (≈ 25 µM)
- MIC [12]: 4 µg/mL (≈ 12.5 µM)
- MIC [4]: 0.5 µg/mL (≈ 1.56 µM)
- MIC [5]: 0.25 µg/mL (≈ 0.78 µM)
- MIC [6]: 0.5 µg/mL (≈ 1.56 µM)
- MIC [11]: 0.25 µg/mL (≈ 0.78 µM)
- MIC [7]: 0.5 µg/mL (≈ 1.56 µM)
- MIC [8]: 0.06 µg/mL (≈ 0.187 µM)
- MIC [9]: 0.25 µg/mL (≈ 0.78 µM)
